Measured values from patent US20090012085A1, “DOSAGE FORMS AND METHODS OF TREATMENT USING A TYROSINE KINASE INHIBITOR” (priority 2005, published 2009).
Where two headings read alike, the source gives them in different places.

Experiment: Phase I dose-escalating study, plasma pharmacokinetics in patients with solid tumor
Type: in vivo, human
Conditions: for Tmax: read-out: tmax, mean (% CV); for concentration at 4 h: nominal time 4 h; for concentration at 12 h: nominal time 12 h; for accumulation of the drug with continuous dosing: plasma exposures on Day 28 of dosing, compared to 4/1 schedule
Description: Cmax values, or maximum total plasma concentrations, of a compound of formula 1 can be measured according to techniques well known to those skilled in the art. For example, after a compound of formula 1 has been administered to a mammal, blood samples can be taken at fixed time points over a period of time (e.g. 24 hours) and the serum or plasma concentration of compound of formula 1 can be measured using standard analytical techniques known in the art. In vivo determinations Cmax can then be made by plotting the serum or plasma concentration of compound of formula 1 along the ordinate (y-axis) against time along the abscissa (x-axis).
The maleate salt of compound 1 was administered to human patients with solid tumor malignancies not amenable to conventional therapies in a Phase I dose-escalating multicenter study. The types of tumor malignancies included colorectal carcinoma, renal cell carcinoma, esophageal carcinoma, thymus carcinoma, mastocytosis, lung cancer and multiple endocrine neoplasia type II. Patients were treated in cohorts of 6 with escalating QD (once per day) doses of the maleate salt of compound 1 under fasting conditions. Each study cycle of 5 weeks consisted of 4 weeks of treatment followed by 1 week of rest (4/1 schedule), or continuous dosing without any rest period.
Full pharmacokinetic profiles were collected on Cycle 1 Day 1 (C1D1), Cycle 1 Day 28 (C1D28), and Cycle 2 Day 28 (C2D28). Preliminary pharmacokinetic parameters for the first 44 patients, i.e. the first 7 dosing groups, were estimated using nominal collection times and quality-controlled, non-quality assured bioanalytical data. The dosage amounts in Table 1A and Table 1B are free base equivalent amounts.

Question: For `Cc1[nH]c(/C=C2\C(=O)Nc3ccc(F)cc32)c(C)c1C(=O)NC[C@H](O)CN1CCOCC1` [compound 1, 5-[(Z)-(5-fluoro-2-oxo-1,2-dihydro-3H-indol-3-ylidene)methyl]-N-[(2S)-2-hydroxy-3-morpholin-4-ylpropyl]-2,4-dimethyl-1H-pyrrole-3-carboxamide], which half-life (human, plasma, 200 mg, 200 mg QD (4/1), C1D1 (n = 6), plasma, read-out: t½, mean (% CV) (converted)) is on record?
Answer: 1130 min

Question: And the AUC(0-t) (human, plasma, 200 mg, 200 mg QD (4/1), C1D28 (n = 5), plasma, read-out: AUC(0-24), mean (% CV))?
Answer: 8210 ng·h/mL

Question: And the concentration at 24 h (human, plasma, 200 mg, 200 mg QD (4/1), C1D28 (n = 5), plasma, read-out: C(trough, 24 h), mean (% CV))?
Answer: 259 ng/mL

Question: What about the Cmax (human, plasma, 200 mg, 200 mg QD (4/1), C1D28 (n = 5), plasma, read-out: Cmax, mean (% CV)) of the same molecule?
Answer: 561 ng/mL

Question: And the Tmax (human, plasma, 200 mg, 200 mg QD (4/1), C1D28 (n = 5), plasma)?
Answer: 6.6 h

Question: And the half-life (human, plasma, 200 mg, 200 mg QD (4/1), C1D28 (n = 5), plasma, read-out: t½, mean (% CV) (converted))?
Answer: 1610 min

Question: What about the AUC(0-t) (human, plasma, 200 mg, 200 mg QD (4/1), C2D28 (n = 5), plasma, read-out: AUC(0-24), mean (% CV)) of the same molecule?
Answer: 6270 ng·h/mL

Question: And the concentration at 24 h (human, plasma, 200 mg, 200 mg QD (4/1), C2D28 (n = 5), plasma, read-out: C(trough, 24 h), mean (% CV))?
Answer: 211 ng/mL

Question: And the Cmax (human, plasma, 200 mg, 200 mg QD (4/1), C2D28 (n = 5), plasma, read-out: Cmax, mean (% CV))?
Answer: 375 ng/mL

Question: What about the Tmax (human, plasma, 200 mg, 200 mg QD (4/1), C2D28 (n = 5), plasma) of the same molecule?
Answer: 5.6 h

Question: And the half-life (human, plasma, 200 mg, 200 mg QD (4/1), C2D28 (n = 5), plasma, read-out: t½, mean (% CV) (converted))?
Answer: 918 min

Question: And the concentration at 3 h (human, plasma, 250 mg QD, 250 mg QD 4/1 (n = 6), nominal time 3 h, read-out: Mean plasma concentration following the last dose on cycle 1 day 28)?
Answer: 250 ng/mL

Question: And the concentration at 4 h (human, plasma, 250 mg QD, 250 mg QD 4/1 (n = 6), read-out: Mean plasma concentration following the last dose on cycle 1 day 28)?
Answer: 200 ng/mL

Question: And the concentration at 6 h (human, plasma, 250 mg QD, 250 mg QD 4/1 (n = 6), nominal time 6 h, read-out: Mean plasma concentration following the last dose on cycle 1 day 28)?
Answer: 157 ng/mL

Question: What about the concentration at 8 h (human, plasma, 250 mg QD, 250 mg QD 4/1 (n = 6), nominal time 8 h, read-out: Mean plasma concentration following the last dose on cycle 1 day 28) of the same molecule?
Answer: 161 ng/mL

Question: What about the concentration at 10 h (human, plasma, 250 mg QD, 250 mg QD 4/1 (n = 6), nominal time 10 h, read-out: Mean plasma concentration following the last dose on cycle 1 day 28) of the same molecule?
Answer: 141 ng/mL

Question: What about the concentration at 0 h (human, plasma, 250 mg, 250 mg QD 4/1 (n = 6), nominal time 0 h, read-out: Mean plasma concentration following the last dose on cycle 1 day 28) of the same molecule?
Answer: 64.5 ng/mL

Question: And the concentration at 1 h (human, plasma, 250 mg, 250 mg QD 4/1 (n = 6), nominal time 1 h, read-out: Mean plasma concentration following the last dose on cycle 1 day 28)?
Answer: 107 ng/mL

Question: What about the concentration at 2 h (human, plasma, 250 mg, 250 mg QD 4/1 (n = 6), nominal time 2 h, read-out: Mean plasma concentration following the last dose on cycle 1 day 28) of the same molecule?
Answer: 177 ng/mL

Question: What about the concentration at 20 h (human, plasma, 250 mg, 250 mg QD 4/1 (n = 6), nominal time 20 h, read-out: Mean plasma concentration following the last dose on cycle 1 day 28) of the same molecule?
Answer: 53.6 ng/mL

Question: And the concentration at 24 h (human, plasma, 250 mg, 250 mg QD 4/1 (n = 6), nominal time 24 h, read-out: Mean plasma concentration following the last dose on cycle 1 day 28)?
Answer: 63 ng/mL

Question: What about the AUC(0-t) (human, plasma, 250 mg, 250 mg QD (4/1), C1D1 (n = 6), plasma, read-out: AUC(0-24), mean (% CV)) of the same molecule?
Answer: 7580 ng·h/mL

Question: And the concentration at 24 h (human, plasma, 250 mg, 250 mg QD (4/1), C1D1 (n = 6), plasma, read-out: C(trough, 24 h), mean (% CV))?
Answer: 143 ng/mL

Question: And the Cmax (human, plasma, 250 mg, 250 mg QD (4/1), C1D1 (n = 6), plasma, read-out: Cmax, mean (% CV))?
Answer: 848 ng/mL

Question: What about the Tmax (human, plasma, 250 mg, 250 mg QD (4/1), C1D1 (n = 6), plasma) of the same molecule?
Answer: 3.7 h

Question: And the half-life (human, plasma, 250 mg, 250 mg QD (4/1), C1D1 (n = 6), plasma, read-out: t½, mean (% CV) (converted))?
Answer: 690 min

Question: What about the AUC(0-t) (human, plasma, 250 mg, 250 mg QD (4/1), C1D28 (n = 4), plasma, read-out: AUC(0-24), mean (% CV)) of the same molecule?
Answer: 9810 ng·h/mL

Question: What about the concentration at 24 h (human, plasma, 250 mg, 250 mg QD (4/1), C1D28 (n = 4), plasma, read-out: C(trough, 24 h), mean (% CV)) of the same molecule?
Answer: 246 ng/mL

Question: And the Cmax (human, plasma, 250 mg, 250 mg QD (4/1), C1D28 (n = 4), plasma, read-out: Cmax, mean (% CV))?
Answer: 734 ng/mL

Question: What about the Tmax (human, plasma, 250 mg, 250 mg QD (4/1), C1D28 (n = 4), plasma) of the same molecule?
Answer: 4.5 h

Question: And the half-life (human, plasma, 250 mg, 250 mg QD (4/1), C1D28 (n = 4), plasma, read-out: t½, mean (% CV) (converted))?
Answer: 1340 min

Question: And the concentration at 24 h (human, plasma, 250 mg, 250 mg QD (4/1), C2D28 (n = 4), plasma, read-out: C(trough, 24 h), mean (% CV))?
Answer: 279 ng/mL

Question: And the Cmax (human, plasma, 250 mg, 250 mg QD (4/1), C2D28 (n = 4), plasma, read-out: Cmax, mean (% CV))?
Answer: 748 ng/mL

Question: What about the Tmax (human, plasma, 250 mg, 250 mg QD (4/1), C2D28 (n = 4), plasma) of the same molecule?
Answer: 5.5 h

Question: What about the half-life (human, plasma, 250 mg, 250 mg QD (4/1), C2D28 (n = 4), plasma, read-out: t½, mean (% CV) (converted)) of the same molecule?
Answer: 792 min

Question: And the half-life (human, plasma, 4/1 schedule, blood samples for 144 hours after the last dose on Day 28, across the dose groups, read-out: longer t1/2, mean estimates)?
Answer: 792 to 1610 min

Question: What about the half-life (human, plasma, C1D1, across dose groups, read-out: mean terminal plasma half-life (t1/2) over 24 hours after dosing) of the same molecule?
Answer: 648 to 1130 min

Question: And the concentration at 12 h (human, plasma, oral, 25 mg QD, 25 mg QD 4/1 (n = 6), read-out: Mean plasma concentration following the last dose on cycle 1 day 28)?
Answer: 30.1 ng/mL

Question: What about the concentration at 4 h (human, plasma, oral, 25 mg, 25 mg QD 4/1 (n = 6), read-out: Mean plasma concentration following the last dose on cycle 1 day 28) of the same molecule?
Answer: 58.3 ng/mL

Question: What about the AUC(0-t) (human, plasma, oral, 25 mg, 25 mg QD (4/1), C2D28 (n = 5), plasma, read-out: AUC(0-24), mean (% CV)) of the same molecule?
Answer: 794 ng·h/mL

Question: And the concentration at 24 h (human, plasma, oral, 25 mg, 25 mg QD (4/1), C2D28 (n = 5), plasma, read-out: C(trough, 24 h), mean (% CV))?
Answer: 21.4 ng/mL

Question: What about the AUC(0-t) (human, plasma, oral, 25 mg, one patient excluded from the mean, 25 mg QD 4/1, C2D28, read-out: AUC(0-24)) of the same molecule?
Answer: 7000 ng·h/mL

Question: And the Cmax (human, plasma, oral, 25 mg, one patient excluded from the mean, 25 mg QD 4/1, C2D28, read-out: Cmax)?
Answer: 394 ng/mL

Question: And the concentration at 12 h (human, plasma, oral, 50 mg QD, 50 mg QD 4/1 (n = 5), read-out: Mean plasma concentration following the last dose on cycle 1 day 28)?
Answer: 50.4 ng/mL

Question: What about the concentration at 4 h (human, plasma, oral, 50 mg, 50 mg QD 4/1 (n = 5), read-out: Mean plasma concentration following the last dose on cycle 1 day 28) of the same molecule?
Answer: 81.1 ng/mL

Question: And the concentration at 12 h (human, plasma, oral, 100 mg QD, 100 mg QD 4/1 (n = 6), read-out: Mean plasma concentration following the last dose on cycle 1 day 28)?
Answer: 204 ng/mL

Question: And the concentration at 12 h (human, plasma, oral, 100 mg, 100 mg QD Continuous (n = 4), read-out: Mean plasma concentration following the last dose on cycle 1 day 28)?
Answer: 377 ng/mL

Question: What about the concentration at 12 h (human, plasma, oral, 150 mg QD, 150 mg QD 4/1 (n = 5), read-out: Mean plasma concentration following the last dose on cycle 1 day 28) of the same molecule?
Answer: 91.3 ng/mL

Question: And the concentration at 4 h (human, plasma, oral, 150 mg, 150 mg QD 4/1 (n = 5), read-out: Mean plasma concentration following the last dose on cycle 1 day 28)?
Answer: 231 ng/mL

Question: What about the concentration at 12 h (human, plasma, oral, 150 mg, 150 mg QD Continuous (n = 6), read-out: Mean plasma concentration following the last dose on cycle 1 day 28) of the same molecule?
Answer: 465 ng/mL

Question: And the concentration at 12 h (human, plasma, oral, 200 mg, 200 mg QD 4/1 (n = 5), read-out: Mean plasma concentration following the last dose on cycle 1 day 28)?
Answer: 355 ng/mL

Question: And the concentration at 12 h (human, plasma, oral, 250 mg, 250 mg QD 4/1 (n = 6), read-out: Mean plasma concentration following the last dose on cycle 1 day 28)?
Answer: 130 ng/mL

Question: And the AUC(0-t) (human, plasma, oral, 250 mg, 250 mg QD (4/1), C2D28 (n = 4), plasma, read-out: AUC(0-24), mean (% CV))?
Answer: 9770 ng·h/mL

Question: What about the half-life (human, plasma, oral, patients with solid tumors, read-out: effective t1/2 of elimination from plasma) of the same molecule?
Answer: 660 to 1140 min

Question: What about the concentration at 1 week (human, extrapolating beyond the measured plasma concentrations at 144 hours, rest period after the last dose of Cycle 1, read-out: concentration prior to the start of dosing in the following cycle) of the same molecule?
Answer: < 5 ng/mL

Question: And the “higher exposures on C2D28 compared with C1D28” value (one patient excluded from the mean, 25 mg QD 4/1)?
Answer: approximately 5 fold

Question: And the “accumulation of the drug with continuous dosing” value?
Answer: no unexpected accumulation

Question: What about the “accumulation of the drug with continuous dosing” value (listed as compound of formula 1) of the same molecule?
Answer: no unexpected drug accumulation
